The values below come from ChEMBL document CHEMBL3046041, “3D QSAR kNN-MFA studies on thiouracil derivatives as hepatitis C virus inhibitors” (Med Chem Res, 2011).

The structures appear in SMILES notation.

The target of one assay is RNA-directed RNA polymerase (Hepacivirus hominis, UniProt O39930). Nature of the assay: Inhibition of Hepatitis C virus NS5B RNA-dependent RNA polymerase. To be noted: read-out: IC50.
RNA-directed RNA polymerase, sequence (O39930 whole entry): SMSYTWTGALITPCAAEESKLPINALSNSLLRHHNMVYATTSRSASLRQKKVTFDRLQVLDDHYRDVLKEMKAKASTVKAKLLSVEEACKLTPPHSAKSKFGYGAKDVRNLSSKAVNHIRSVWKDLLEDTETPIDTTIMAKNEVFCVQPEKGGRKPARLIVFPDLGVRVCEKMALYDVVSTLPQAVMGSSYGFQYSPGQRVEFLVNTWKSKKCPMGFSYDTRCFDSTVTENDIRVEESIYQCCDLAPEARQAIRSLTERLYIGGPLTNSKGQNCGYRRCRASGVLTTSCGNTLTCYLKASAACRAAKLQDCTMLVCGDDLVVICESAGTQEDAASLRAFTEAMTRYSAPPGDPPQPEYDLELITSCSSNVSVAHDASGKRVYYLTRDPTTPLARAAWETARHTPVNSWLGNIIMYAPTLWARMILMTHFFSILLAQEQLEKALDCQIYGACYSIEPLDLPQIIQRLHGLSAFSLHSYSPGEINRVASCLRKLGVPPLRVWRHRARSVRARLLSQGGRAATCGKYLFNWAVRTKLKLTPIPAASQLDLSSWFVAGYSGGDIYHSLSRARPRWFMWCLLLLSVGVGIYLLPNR
With `N#Cc1c(-c2ccc(Br)cc2)nc(SCc2ccccc2Br)[nH]c1=O`, the IC50 was determined as 10 µM.
Take `COc1cc(CSc2nc(-c3cccc(C)c3)c(C#N)c(=O)[nH]2)cc(OC)c1`: the IC50 was 30 µM.
As to `COc1cc(CSc2nc(-c3ccccc3C)c(C#N)c(=O)[nH]2)cc(OC)c1`, the IC50 came out at 25 µM.
On the same count and under the same terms, for `Cc1ccccc1-c1nc(SCc2ccccc2Br)[nH]c(=O)c1C#N` the value was 32 µM; for `N#Cc1c(-c2ccccc2C(F)(F)F)nc(SCc2ccccc2Br)[nH]c1=O`, 21 µM.
As to `Cc1cccc(CSc2nc(-c3ccc(C(C)C)cc3)c(C#N)c(=O)[nH]2)c1`, the IC50 is 12 µM.
Regarding `CC(C)c1ccc(-c2nc(SCc3cccc([N+](=O)[O-])c3)[nH]c(=O)c2C#N)cc1`, the IC50 stood at 10 µM.
`CCCCCSc1nc(-c2cccc(C(F)(F)F)c2)c(C#N)c(=O)[nH]1`: the IC50 came to 12 µM.
Regarding `COc1cc(CSc2nc(-c3ccc(F)cc3F)c(C#N)c(=O)[nH]2)cc(OC)c1`, the IC50 is 19 µM.
With `Cc1cccc(CSc2nc(-c3ccc(F)cc3F)c(C#N)c(=O)[nH]2)c1`, the IC50 came out at 57 µM.
Regarding `N#Cc1c(-c2ccc(F)cc2F)nc(SCc2ccccc2Br)[nH]c1=O`, the IC50 was 13 µM.
Turning to `N#Cc1c(-c2ccc(F)cc2F)nc(SCc2cccc([N+](=O)[O-])c2)[nH]c1=O`, the IC50 turned out to be 32 µM.
As to `COc1cc(CSc2nc(-c3ccc(Cl)cc3Cl)c(C#N)c(=O)[nH]2)cc(OC)c1`, the IC50 stood at 34 µM.
Regarding `N#Cc1c(-c2ccc(Cl)cc2Cl)nc(SCc2ccc(OC(F)(F)F)cc2)[nH]c1=O`, the IC50 worked out at 11 µM.
`COc1cc(CSc2nc(-c3ccc(Br)cc3)c(C#N)c(=O)[nH]2)cc(OC)c1`: the IC50 amounted to 13 µM.
In the case of `N#Cc1c(-c2ccc(Br)cc2)nc(SCc2cccc([N+](=O)[O-])c2)[nH]c1=O`, the IC50 was found to be 14 µM.
Take `N#Cc1c(-c2ccc(Br)cc2)nc(SCc2ccccc2C(F)(F)F)[nH]c1=O`: the IC50 was found to be 7.1 µM.
As for `N#Cc1c(-c2ccc(Br)cc2)nc(SCc2ccc(OC(F)(F)F)cc2)[nH]c1=O`, the IC50 came to 8.7 µM.
Take `Cc1cccc(CSc2nc(-c3cccc(C)c3)c(C#N)c(=O)[nH]2)c1`: the IC50 turned out to be 22 µM.
As to `Cc1cccc(-c2nc(SCc3cccc([N+](=O)[O-])c3)[nH]c(=O)c2C#N)c1`, the IC50 was determined as 20 µM.
Consider `Cc1cccc(-c2nc(SCc3ccc(OC(F)(F)F)cc3)[nH]c(=O)c2C#N)c1`, for which the IC50 was 8.6 µM.
Regarding `COc1cc(CSc2nc(-c3cccc(C(F)(F)F)c3)c(C#N)c(=O)[nH]2)cc(OC)c1`, the IC50 was 11 µM.
For the molecule `Cc1cccc(CSc2nc(-c3cccc(C(F)(F)F)c3)c(C#N)c(=O)[nH]2)c1`, the IC50 is 14 µM.
Regarding `N#Cc1c(-c2cccc(C(F)(F)F)c2)nc(SCc2cccc([N+](=O)[O-])c2)[nH]c1=O`, the IC50 stood at 13 µM.
Consider `Cc1cccc(CSc2nc(-c3ccccc3C)c(C#N)c(=O)[nH]2)c1`, for which the IC50 was found to be 14 µM.
Same read-out and setting: for `Cc1ccccc1-c1nc(SCc2cccc([N+](=O)[O-])c2)[nH]c(=O)c1C#N` the value was 37 µM; for `COc1cc(CSc2nc(-c3cc(F)cc(F)c3)c(C#N)c(=O)[nH]2)cc(OC)c1`, 15 µM; for `Cc1cccc(CSc2nc(-c3cc(F)cc(F)c3)c(C#N)c(=O)[nH]2)c1`, 27 µM.
For `COc1cc(CSc2nc(-c3ccccc3C(F)(F)F)c(C#N)c(=O)[nH]2)cc(OC)c1`, the IC50 was found to be 12 µM.
Regarding `Cc1cccc(CSc2nc(-c3ccccc3C(F)(F)F)c(C#N)c(=O)[nH]2)c1`, the IC50 was found to be 14 µM.
For `N#Cc1c(-c2ccccc2C(F)(F)F)nc(SCc2ccc(OC(F)(F)F)cc2)[nH]c1=O`, the IC50 came out at 9.2 µM.
Same read-out and setting: for `COc1cc(CSc2nc(-c3cc(Cl)cc(Cl)c3)c(C#N)c(=O)[nH]2)cc(OC)c1` the value was 34 µM; for `Cc1cccc(CSc2nc(-c3cc(Cl)cc(Cl)c3)c(C#N)c(=O)[nH]2)c1`, 29 µM.
For `COc1cc(CSc2nc(-c3ccc(C(C)C)cc3)c(C#N)c(=O)[nH]2)cc(OC)c1`, the IC50 turned out to be 25 µM.
With `CC(C)c1ccc(-c2nc(SCc3ccccc3Br)[nH]c(=O)c2C#N)cc1`, the IC50 worked out at 3.8 µM.
On to `CC(C)c1ccc(-c2nc(SCc3ccc(OC(F)(F)F)cc3)[nH]c(=O)c2C#N)cc1`, for which the IC50 amounted to 9.9 µM.
With `CCCCCSc1nc(-c2ccc(F)cc2F)c(C#N)c(=O)[nH]1`, the IC50 stood at 12 µM.
In the case of `CCCCCSc1nc(-c2ccc(Cl)cc2Cl)c(C#N)c(=O)[nH]1`, the IC50 was 17 µM.
On to `N#Cc1c(-c2ccc(Cl)cc2Cl)nc(SCCCc2ccccc2)[nH]c1=O`, for which the IC50 amounted to 12 µM.
Still for that read-out and setting: for `CCCCCSc1nc(-c2ccc(Br)cc2)c(C#N)c(=O)[nH]1` the value was 11 µM; for `N#Cc1c(-c2ccc(Br)cc2)nc(SCCC(=O)Oc2ccccc2)[nH]c1=O`, 30 µM.
On to `N#Cc1c(-c2ccc(Br)cc2)nc(SCC2CCCCO2)[nH]c1=O` (stereo unspecified), for which the IC50 is 50 µM.
For the molecule `CCCCCSc1nc(-c2cccc(C)c2)c(C#N)c(=O)[nH]1`, the IC50 stood at 18 µM.
`N#Cc1c(-c2cccc(C(F)(F)F)c2)nc(SCCC(=O)Oc2ccccc2)[nH]c1=O`: the IC50 was 13 µM.
With `CCCCCSc1nc(-c2ccccc2C)c(C#N)c(=O)[nH]1`, the IC50 was 18 µM.
Same read-out and setting: for `CCCCCSc1nc(-c2ccccc2C(F)(F)F)c(C#N)c(=O)[nH]1` the value was 20 µM; for `CCCCCSc1nc(-c2ccc(C(C)C)cc2)c(C#N)c(=O)[nH]1`, 12 µM.
`CC(C)c1ccc(-c2nc(SCC3CCCCO3)[nH]c(=O)c2C#N)cc1` (stereo unspecified): the IC50 amounted to 17 µM.
With `Cc1cccc(CSc2nc(-c3ccc(Cl)cc3Cl)c(C#N)c(=O)[nH]2)c1`, the IC50 came to 33 µM.
Regarding `Cc1cccc(CSc2nc(-c3ccc(Br)cc3)c(C#N)c(=O)[nH]2)c1`, the IC50 worked out at 11 µM.

The assay is the same for the next values; noted with them: read-out: pIC50 (converted).
With `N#Cc1c(-c2ccc(Br)cc2)nc(SCc2ccccc2C(F)(F)F)[nH]c1=O`, the IC50 is 7.24 µM.
